Six compounds from US20100151508A1, “COMPOUNDS” (THE ROBERT GORDON UNIVERSITY, priority 2006, published 2010) can be followed below.

Data set [1] in a line: Fluorescence emission of myricetin derivatives (fluorimetry). Particulars: 2.5 μM in ethanol (KB861 in THF); for λmax (nm): fluorescence emission. Type of data set: physicochemical. The procedure: All the KBX compounds and Myricetin were prepared for analysis of their fluorescent properties (Table 1) using ethanol as the solvent, with the exception of KB861 which used tetrahydrofuran (THF). All measurements were taken at a compound concentration of 2.5 μM.

In data set [2] the test system is Caco-2 cells. Description: Probe fluorescence in menadione stressed versus healthy Caco-2 cells (fluorescence microscopy). Type of data set: cell-based, human. Particulars: for Effect of menadione concentration on intracellular fluorescence: Caco-2, 1, 10 and 20 μM menadione; for Decrease in fluorescence in stressed cells compared to healthy cells: confluent Caco-2, menadione stress, 20 μM probe; for Fluorescence in menadione exposed cultures relative to control non-stressed cultures: pre-confluent, proliferating Caco-2 cultures. The method, then:
Initially, confluent Caco-2 cells were placed under stress using menadione then incubated with 20 μM KB861 for 30 minutes. The fluorescence of KB861 in stressed cells was then compared to that of KB861 in healthy cells using fluorescence microscopy (FIG. 5).
Confluent Caco-2 cells were placed under stress using Menadione then incubated with 20 μM KB474 for 1 minute (FIG. 6) and 15 minutes (FIG. 7). The fluorescence of the compound in the stressed cells was then compared to its fluorescence in healthy Caco-2 cells.
Pre-confluent, proliferating Caco-2 cultures were also exposed to menadione prior to staining with KB861 or KB474.
The effect of menadione concentration on the intracellular fluorescence of compound KB861 and KB474 was also investigated.

Data set [3] relates to Caco-2 cells. Description: Probe fluorescence in Caco-2 cells after glutathione depletion by BSO. Type of data set: cell-based, human. Particulars: Caco-2, glutathione depleted by progressive BSO exposure. The text has this: To examine probe sensitivity to a less severe, more gradually provoked physiological oxidative stress within Caco-2 cells, cellular glutathione was depleted by progressive buthionine sulphoximine (BSO) exposure.

A short description of data set [4]: In vitro oxidation of KB861 solutions, analysed by fluorimetry. Type of data set: physicochemical. The procedure: A series of K5861 solutions (0.5, 1.0, and 1.5 μM) were prepared using THF. […] Another series of KB861 solutions of the same concentrations were prepared and analysed by fluorimetry in their natural unoxidised state (Graph 1).

With `CCCCCCCCCCc1ccc2c(=O)c(O)c(-c3cc(O)c(O)cc3O)oc2c1` [AOX166], in data set [1], the Emission intensity is given as 0.286 and the “λmax (nm)” value is recorded as 514.1 nm.
In the same order, the values of `O=c1c(O)c(-c2ccc(O)c(O)c2O)oc2ccccc12` [AOX558] are 0.166 and 457.1 nm.
In the same order, the values of `O=c1c(O)c(-c2cc(O)c(O)cc2O)oc2ccccc12` [AOX563] are 0.199 and 517.0 nm.
Take `CCc1ccc2c(=O)c(O)c(-c3cc(O)c(O)c(O)c3)oc2c1` [KB474, 7-ethyl-3-hydroxy-2-(3,4,5-trihydroxyphenyl)-4H-1-benzopyran-4-one]: in data set [1], the Emission intensity is 321.113 and the “λmax (nm)” value amounted to 504.9 nm. In data set [2], the “Effect of menadione concentration on intracellular fluorescence” value is “dose dependent decrease” and the “Fluorescence in menadione exposed cultures relative to control non-stressed cultures” value is given as “dramatically decreased”. In addition, the “Decrease in fluorescence in stressed cells compared to healthy cells” value in data set [2] (1 minute and 15 minutes) is “at least 75%”. For the same compound, the “Fluorescence emission after BSO exposure” value in data set [3] is on record as “striking decrease”.
`CCCCCCCCCCc1ccc2c(=O)c(O)c(-c3cc(O)c(O)c(O)c3)oc2c1` [KB861, 7-decyl-3-hydroxy-2-(3,4,5-trihydroxyphenyl)-4H-1-benzopyran-4-one]: in data set [1], the Emission intensity is on record as 664.669 and the “λmax (nm)” value is 544.7 nm. Further, in data set [2], the “Effect of menadione concentration on intracellular fluorescence” value is reported as “correlated with the concentration of menadione exposure” and the “Fluorescence in menadione exposed cultures relative to control non-stressed cultures” value is on record as “dramatically decreased”. The “Decrease in fluorescence in stressed cells compared to healthy cells” value in data set [2] (30 minutes) was 30-40%. In data set [3], the “Fluorescence emission after BSO exposure” value is on record as “striking decrease”. The “Fluorescence emission at 540 nm, natural unoxidised state” value in data set [4] (0.5, 1.0, 1.5 μM in THF) was “highly fluorescent”. Besides, the “Fluorescence emission at 540 nm after oxidation” value in data set [4] (0.5, 1.0, 1.5 μM in THF, oxidised by excess AgO) is “almost completely disappears”. The “Fluorescence on exposure to hydrogen peroxide” value in data set [4] (hydrogen peroxide as stated) is recorded as “diminished”.
Turning to `O=c1c(O)c(-c2cc(O)c(O)c(O)c2)oc2cc(O)cc(O)c12` [Myricetin, 3,5,7-trihydroxy-2-(3,4,5-trihydroxyphenyl)-4H-1-benzopyran-4-one, reference compound], in data set [1], the Emission intensity stood at 17.419 and the “λmax (nm)” value worked out at 499.5 nm.
